The numbers were not newly measured in patent US20230406931A1, “Adjuvant Durvalumab in Combination with Chemotherapy for Treatment of Cancer” (ASTRAZENECA AB, priority 2020, published 2023), which cites them from elsewhere.

For one data set, the target named is PD-L1 (Homo sapiens, UniProt Q9NZQ7). To be noted: in vitro; cited from earlier work.
Another data set concerns xenograft tumor. The settings on record: xenograft model, via a T-cell dependent mechanism; cited from earlier work.
The conditions of data set [1]: durvalumab versus placebo following definitive concurrent chemoradiation, PACIFIC study; cited from earlier work.

PD-L1, sequence (Q9NZQ7 19-290): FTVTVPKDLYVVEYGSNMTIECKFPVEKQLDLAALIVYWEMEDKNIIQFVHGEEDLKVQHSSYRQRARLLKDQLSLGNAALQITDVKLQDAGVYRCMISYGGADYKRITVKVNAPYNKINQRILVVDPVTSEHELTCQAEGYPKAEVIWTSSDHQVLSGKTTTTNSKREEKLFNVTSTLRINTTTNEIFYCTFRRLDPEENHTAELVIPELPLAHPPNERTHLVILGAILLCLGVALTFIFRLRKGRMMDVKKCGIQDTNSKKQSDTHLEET

Take “durvalumab: antibody that selectively binds PD-L1 and blocks the binding of PD-L1 to the PD-1 and CD80 receptors”: the “relief of PD-L1-mediated suppression of human T-cell activation” value with PD-L1 is on record as “relieve PD-L1-mediated suppression of human T-cell activation”. In the data set on xenograft tumor, the tumor growth result was “inhibits tumor growth”. In data set [1], the “overall survival (OS)” value is recorded as “improved” and the “progression-free survival (PFS)” value is “improved”.
